Data: US20090247559A1 (Exelixis, Inc., priority 2007, published 2009)
Like-named read-outs stand apart in the source and are kept apart here.

Assays:
CK2 = CK2 (Homo sapiens, UniProt P68400); test: CK2 inhibition, biochemical chemiluminescence holoenzyme assay (Kinase Glo, IC50 determination); conditions: Table 1 activity class; symbol given only if active; read-out: CK2 IC50 (Activity C)
Summary of the method: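 Holoenzyme CK2 assay; compounds pre-incubated with substrate and enzyme, then reacted 150 min at 24-27° C. Remaining ATP measured as luminescence with Kinase Glo, and IC50 derived from the signal.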

[1] = target: PIM (PIM-1, PIM-2, and/or PIM-3); test: PIM-1, PIM-2 and PIM-3 inhibition, biochemical chemiluminescence assays (Kinase Glo, IC50 determination); conditions: Table 1 activity class; PIM refers to PIM-1, PIM-2, and/or PIM-3; read-out: PIM IC50 (Activity B)
CDC7 = CDC7 (Homo sapiens, UniProt O00311); test: CDC7 inhibition, biochemical chemiluminescence assay (Kinase Glo, IC50 determination)
Summary of the method: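 CDC7 enzyme preincubated with compound 10 min at ambient temperature, then ATP mix in Tris Base added; reaction 90 min at 24-27 °C. Remaining ATP quantified by Kinase Glo luminescence to give IC50.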

[2] = Table 1 activity class, symbol given only if active, read-out: CDC7 IC50 (Activity A)
[3] = compounds in Table 1, read-out: CDC7 IC50 value

CK2, sequence (P68400 whole entry): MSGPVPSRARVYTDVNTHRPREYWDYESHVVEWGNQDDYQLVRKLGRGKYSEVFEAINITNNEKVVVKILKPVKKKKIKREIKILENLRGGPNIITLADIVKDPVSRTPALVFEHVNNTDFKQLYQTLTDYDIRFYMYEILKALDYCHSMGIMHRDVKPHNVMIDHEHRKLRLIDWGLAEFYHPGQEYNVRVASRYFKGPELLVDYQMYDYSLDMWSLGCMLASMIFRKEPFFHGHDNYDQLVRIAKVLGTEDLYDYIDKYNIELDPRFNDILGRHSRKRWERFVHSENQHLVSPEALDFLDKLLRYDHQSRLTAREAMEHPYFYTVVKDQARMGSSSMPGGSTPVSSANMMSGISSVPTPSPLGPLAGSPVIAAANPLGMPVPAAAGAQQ
CK2, sequence (P67870 whole entry partner): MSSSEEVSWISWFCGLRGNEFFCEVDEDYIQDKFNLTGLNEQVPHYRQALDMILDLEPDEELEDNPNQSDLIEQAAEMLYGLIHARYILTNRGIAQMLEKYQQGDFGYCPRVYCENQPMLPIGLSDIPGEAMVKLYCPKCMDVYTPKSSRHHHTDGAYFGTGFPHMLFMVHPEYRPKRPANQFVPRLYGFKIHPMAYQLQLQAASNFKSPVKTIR
CDC7, sequence (O00311 whole entry): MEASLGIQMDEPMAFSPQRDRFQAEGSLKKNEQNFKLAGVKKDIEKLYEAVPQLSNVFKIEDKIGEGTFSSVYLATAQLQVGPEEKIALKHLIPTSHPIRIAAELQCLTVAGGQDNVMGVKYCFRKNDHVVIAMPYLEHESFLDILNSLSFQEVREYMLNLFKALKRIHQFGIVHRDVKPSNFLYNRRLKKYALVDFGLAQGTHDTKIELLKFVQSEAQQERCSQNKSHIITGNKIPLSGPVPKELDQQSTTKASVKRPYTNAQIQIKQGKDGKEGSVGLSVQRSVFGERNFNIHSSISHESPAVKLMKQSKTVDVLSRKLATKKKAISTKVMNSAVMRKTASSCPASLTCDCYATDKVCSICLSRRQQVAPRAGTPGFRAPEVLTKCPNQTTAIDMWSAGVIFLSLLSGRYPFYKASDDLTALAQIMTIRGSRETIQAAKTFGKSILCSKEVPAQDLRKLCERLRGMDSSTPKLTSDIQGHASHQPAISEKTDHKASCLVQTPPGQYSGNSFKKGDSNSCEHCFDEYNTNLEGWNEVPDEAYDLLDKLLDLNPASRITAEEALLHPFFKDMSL
CDC7, sequence (Q9UBU7 whole entry partner): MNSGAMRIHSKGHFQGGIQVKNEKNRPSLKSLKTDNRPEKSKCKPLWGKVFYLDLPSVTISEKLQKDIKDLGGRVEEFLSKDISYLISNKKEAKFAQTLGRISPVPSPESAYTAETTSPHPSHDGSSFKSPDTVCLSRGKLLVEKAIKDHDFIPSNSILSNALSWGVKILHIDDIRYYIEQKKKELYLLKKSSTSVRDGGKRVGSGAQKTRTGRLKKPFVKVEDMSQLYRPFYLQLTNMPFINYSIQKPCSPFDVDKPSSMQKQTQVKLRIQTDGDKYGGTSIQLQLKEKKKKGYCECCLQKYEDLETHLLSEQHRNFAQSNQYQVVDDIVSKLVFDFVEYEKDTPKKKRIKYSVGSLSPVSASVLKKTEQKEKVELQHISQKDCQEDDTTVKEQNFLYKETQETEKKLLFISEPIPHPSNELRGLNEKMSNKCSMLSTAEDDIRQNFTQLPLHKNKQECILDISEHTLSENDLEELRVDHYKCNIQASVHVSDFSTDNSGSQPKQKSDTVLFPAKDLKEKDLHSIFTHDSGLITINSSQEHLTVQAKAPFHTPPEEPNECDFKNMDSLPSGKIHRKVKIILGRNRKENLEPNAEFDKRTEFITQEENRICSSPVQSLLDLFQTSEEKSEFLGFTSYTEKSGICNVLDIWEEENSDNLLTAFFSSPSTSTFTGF

Structure (SMILES) | IC50 (CK2) | IC50 [1] | IC50 (CDC7; [2]) | IC50 (CDC7; [3]) | IC50 (CDC7; CDC7 IC50 (Activity A), Table 1 activity class, symbol given only if active)
CC(C)NCc1ccc(-c2nc3c(oc4ccc(Br)cc43)c(=O)[nH]2)c(Cl)c1 [Compound 430, 8-bromo-2-(2-chloro-4-{[(1-methylethyl)amino]methyl}phenyl)[1]benzofuro[3,2-d]pyrimidin-4(3H)-one] | < 10 µM | < 10 µM | < 10 µM |  | 
CN1CCC(NCc2ccc(-c3nc4c(oc5ccc(Br)cc54)c(=O)[nH]3)c(Cl)c2)CC1 [Compound 435, 8-bromo-2-(2-chloro-4-{[(1-methylpiperidin-4-yl)amino]methyl}phenyl)[1]benzofuro[3,2-d]pyrimidin-4(3H)-one] | < 10 µM | < 10 µM | < 10 µM |  | 
Nc1ccc(C(=O)Nc2ccc(-c3nc4c(oc5ccc(Br)cc54)c(=O)[nH]3)c(Cl)c2)cn1 [Compound 439, 6-amino-N-[4-(8-bromo-4-oxo-3,4-dihydro[1]benzofuro[3,2-d]pyrimidin-2-yl)-3-chlorophenyl]pyridine-3-carboxamide] | < 10 µM | < 10 µM | < 10 µM |  | 
O=c1c2oc3ccc(Br)cc3c2nc2n1CN1CCC[C@H]21 [Compound 452, (13bR)-11-bromo-1,2,3,13b-tetrahydro-7H-[1]benzofuro[3,2-d]pyrrolo[1′,2′:3,4]imidazo[1,5-a]pyrimidin-7-one] | < 10 µM | < 10 µM | < 10 µM | < 0.1 µM | 
O=c1c2oc3ccc(Br)cc3c2nc2n1CN1CCC[C@@H]21 [Compound 453, (13bS)-11-bromo-1,2,3,13b-tetrahydro-7H-[1]benzofuro[3,2-d]pyrrolo[1′,2′:3,4]imidazo[1,5-a]pyrimidin-7-one] | < 10 µM | < 10 µM | < 10 µM | < 0.1 µM | 
C[Si](C)(C)C#Cc1ccc2oc3c(=O)[nH]c(CN4CC[C@H](O)C4)nc3c2c1 [Compound 459, 2-{[(3S)-3-hydroxypyrrolidin-1-yl]methyl}-8-[(trimethylsilyl)ethynyl][1]benzofuro[3,2-d]pyrimidin-4(3H)-one] | < 10 µM | < 10 µM |  |  | < 10 µM
O=c1[nH]c([C@@H]2CCCN2)nc2c1oc1ccc(Br)cc12 [Compound 470, 8-bromo-2-[(2S)-pyrrolidin-2-yl][1]benzofuro[3,2-d]pyrimidin-4(3H)-one] | < 10 µM | < 10 µM | < 10 µM | < 0.1 µM | 
O=c1[nH]c([C@H]2CCCN2)nc2c1oc1ccc(Br)cc12 [Compound 471, 8-bromo-2-[(2R)-pyrrolidin-2-yl][1]benzofuro[3,2-d]pyrimidin-4(3H)-one] | < 10 µM | < 10 µM | < 10 µM | < 0.1 µM | 
O=c1[nH]c([C@@H]2C[C@@H](O)CN2)nc2c1oc1ccc(Br)cc12 [Compound 488, 8-bromo-2-[(2S,4R)-4-hydroxypyrrolidin-2-yl][1]benzofuro[3,2-d]pyrimidin-4(3H)-one] | < 10 µM | < 10 µM | < 10 µM | < 0.1 µM | 
N[C@@H](c1ccccc1)c1nc2c(oc3ccc(Br)cc32)c(=O)[nH]1 [Compound 489, 2-[(S)-amino(phenyl)methyl]-8-bromo[1]benzofuro[3,2-d]pyrimidin-4(3H)-one] | < 10 µM | < 10 µM | < 10 µM | < 0.1 µM | 
N[C@H](c1ccccc1)c1nc2c(oc3ccc(Br)cc32)c(=O)[nH]1 [Compound 490, 2-[(R)-amino(phenyl)methyl]-8-bromo[1]benzofuro[3,2-d]pyrimidin-4(3H)-one] | < 10 µM | < 10 µM | < 10 µM | < 0.1 µM | 
C[C@H](N)c1nc2c(oc3ccc(Br)cc32)c(=O)[nH]1 [Compound 492, 2-[(1S)-1-aminoethyl]-8-bromo[1]benzofuro[3,2-d]pyrimidin-4(3H)-one] | < 10 µM | < 10 µM | < 10 µM | < 0.1 µM | 
C[C@@H](N)c1nc2c(oc3ccc(Br)cc32)c(=O)[nH]1 [Compound 493, 2-[(1R)-1-aminoethyl]-8-bromo[1]benzofuro[3,2-d]pyrimidin-4(3H)-one] | < 10 µM | < 10 µM | < 10 µM | < 0.1 µM | 

The next lines start with results.

IC50 (CK2) | IC50 [1] | IC50 (CDC7; [2]) | IC50 (CDC7; [3]) | Structure (SMILES) | IC50 (CDC7; CDC7 IC50 (Activity A), Table 1 activity class, symbol given only if active)
< 10 µM | < 10 µM | < 10 µM |  | COc1ccc(Br)c2oc3c(=O)[nH]c(CN4CC[C@H](O)C4)nc3c12 [Compound 428, 6-bromo-2-{[(3S)-3-hydroxypyrrolidin-1-yl]methyl}-9-(methyloxy)[1]benzofuro[3,2-d]pyrimidin-4(3H)-one] | 
< 10 µM | < 10 µM | < 10 µM | < 0.1 µM | O=c1[nH]c(CN2CC[C@H](O)C2)nc2c1oc1ccc(Cl)cc12 [Compound 429, 8-chloro-2-{[(3S)-3-hydroxypyrrolidin-1-yl]methyl}[1]benzofuro[3,2-d]pyrimidin-4(3H)-one] | 
< 10 µM | < 10 µM | < 10 µM | < 0.1 µM | O=c1[nH]c(CN2CC[C@H](O)C2)nc2c1oc1ccc3cn[nH]c3c12 [Compound 432, 9-{[(3S)-3-hydroxypyrrolidin-1-yl]methyl}-1H-pyrimido[4′,5′:4,5]furo[2,3-g]indazol-7(8H)-one] | 
< 10 µM | < 10 µM | < 10 µM |  | Cc1cc2c(cc1[N+](=O)O)oc1c(=O)[nH]c(CN3CC[C@H](O)C3)nc12 [Compound 433, hydroxy(2-{[(3S)-3-hydroxypyrrolidin-1-yl]methyl}-8-methyl-4-oxo-3,4-dihydro[1]benzofuro[3,2-d]pyrimidin-7-yl)oxoammonium] | 
< 10 µM | < 10 µM | < 10 µM |  | Cc1cc(Br)cc2c1oc1c(=O)[nH]c(CN3CC[C@H](O)C3)nc12 [Compound 434, 8-bromo-2-{[(3S)-3-hydroxypyrrolidin-1-yl]methyl}-6-methyl[1]benzofuro[3,2-d]pyrimidin-4(3H)-one] | 
< 10 µM | < 10 µM | < 10 µM |  | CN1CCN(Cc2nc3c(oc4cc(O)c(Br)cc43)c(=O)[nH]2)CC1 [Compound 438, 8-bromo-7-hydroxy-2-[(4-methylpiperazin-1-yl)methyl][1]benzofuro[3,2-d]pyrimidin-4(3H)-one] | 
< 10 µM | < 10 µM | < 10 µM |  | Cc1ccc2oc3c(=O)[nH]c(CN4CC[C@H](O)C4)nc3c2c1N [Compound 440, 9-amino-2-{[(3S)-3-hydroxypyrrolidin-1-yl]methyl}-8-methyl[1]benzofuro[3,2-d]pyrimidin-4(3H)-one] | 
< 10 µM | < 10 µM | < 10 µM | < 0.1 µM | CSc1ccc2oc3c(=O)[nH]c(CN4CC[C@H](O)C4)nc3c2c1 [Compound 442, 2-{[(3S)-3-hydroxypyrrolidin-1-yl]methyl}-8-(methylthio)[1]benzofuro[3,2-d]pyrimidin-4(3H)-one] | 
< 10 µM | < 10 µM | < 10 µM |  | O=c1[nH]c(CN2CC[C@H](O)C2)nc2c1oc1ccc(NCCc3cccc(Cl)c3)cc12 [Compound 444, 8-{[2-(3-chlorophenyl)ethyl]amino}-2-{[(3S)-3-hydroxypyrrolidin-1-yl]methyl}[1]benzofuro[3,2-d]pyrimidin-4(3H)-one] | 
< 10 µM | < 10 µM | < 10 µM |  | COc1c(Br)ccc2oc3c(=O)[nH]c(CN4CC[C@H](O)C4)nc3c12 [Compound 447, 8-bromo-2-{[(3S)-3-hydroxypyrrolidin-1-yl]methyl}-9-(methyloxy)[1]benzofuro[3,2-d]pyrimidin-4(3H)-one] | 
< 10 µM | < 10 µM | < 10 µM |  | COc1cccc2oc3c(=O)[nH]c(CN4CC[C@H](O)C4)nc3c12 [Compound 448, 2-{[(3S)-3-hydroxypyrrolidin-1-yl]methyl}-9-(methyloxy)[1]benzofuro[3,2-d]pyrimidin-4(3H)-one] | 
< 10 µM | < 10 µM | < 10 µM |  | COc1ccc2oc3c(=O)[nH]c(CN4CC[C@H](O)C4)nc3c2c1 [Compound 451, 2-{[(3S)-3-hydroxypyrrolidin-1-yl]methyl}-8-(methyloxy)[1]benzofuro[3,2-d]pyrimidin-4(3H)-one] | 
< 10 µM | < 10 µM | < 10 µM | < 0.1 µM | C#Cc1ccc2oc3c(=O)[nH]c(CN4CC[C@H](O)C4)nc3c2c1 [Compound 458, 8-ethynyl-2-{[(3S)-3-hydroxypyrrolidin-1-yl]methyl}[1]benzofuro[3,2-d]pyrimidin-4(3H)-one] | 
< 10 µM | < 10 µM | < 10 µM |  | CCc1ccc2oc3c(=O)[nH]c(CN4CC[C@H](O)C4)nc3c2c1 [Compound 460, 8-ethyl-2-{[(3S)-3-hydroxypyrrolidin-1-yl]methyl}[1]benzofuro[3,2-d]pyrimidin-4(3H)-one] | 
< 10 µM | < 10 µM | < 10 µM |  | CC(C)COc1cccc2oc3c(=O)[nH]c(CN4CC[C@H](O)C4)nc3c12 [Compound 469, 2-{[(3S)-3-hydroxypyrrolidin-1-yl]methyl}-9-[(2-methylpropyl)oxy][1]benzofuro[3,2-d]pyrimidin-4(3H)-one] | 
< 10 µM | < 10 µM | < 10 µM | < 0.1 µM | O=c1[nH]c(CN2CC[C@H](O)C2)nc2c1oc1ccc3c(c12)OCO3 [Compound 476, 9-{[(3S)-3-hydroxypyrrolidin-1-yl]methyl}[1,3]dioxolo[4,5][1]benzofuro[3,2-d]pyrimidin-7(8H)-one] | 
